Data taken from paper PMC9719519, “Non-classical ferroptosis inhibition by a small molecule targeting PHB2” (Nature Communications, 2022).

Key:
Assay in all cases: biochemical
Parameters in all cases: Eurofins recombinant human kinase profiling, remaining kinase activity as % of control, 10 uM ATP
Details in all cases: ATP 10 uM; read-out: %Ctrl@10 μM
AAK1(h) = AAK1(h) (Homo sapiens, UniProt Q2M2I8)
Method in brief: (§1)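 Activity measured in a commercial panel of 401 recombinant human protein kinases run as a kinase profiling service.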

BMPR2(h) = BMPR2(h) (Homo sapiens, UniProt Q13873)
Method in brief: as §1

CDK18/cyclinY(h) = CDK18/cyclinY(h) (Homo sapiens, UniProt Q07002)
Method in brief: as §1

EGFR(L858R)(h) = EGFR(L858R)(h) (Homo sapiens, UniProt P00533, L858R)
Method in brief: as §1

FGFR1(h) = FGFR1(h) (Homo sapiens, UniProt P11362)
Method in brief: as §1

Fer(h) = Fer(h) (Homo sapiens, UniProt P16591)
Method in brief: as §1

Fes(h) = Fes(h) (Homo sapiens, UniProt P07332)
Method in brief: as §1

Fgr(h) = Fgr(h) (Homo sapiens, UniProt P09769)
Method in brief: as §1

MAK(h) = MAK(h) (Homo sapiens, UniProt P20794)
Method in brief: as §1

MAPK2(h) = biological target: T1, MAPK2(h) (Homo sapiens, UniProt P28482)
T1 construct: gene MAPK1
Method in brief: as §1

MAPKAP-K2(h) = biological target: T2, MAPKAP-K2(h) (Homo sapiens, UniProt P49137)
T2 construct: gene MAPKAPK2
Method in brief: as §1

MKK6(h) = biological target: T3, MKK6(h) (Homo sapiens, UniProt P52564)
T3 construct: gene MAP2K6
Method in brief: as §1

NLK(h) = NLK(h) (Homo sapiens, UniProt Q9UBE8)
Method in brief: as §1

PKCδ(h) = biological target: T4, PKCδ(h) (Homo sapiens, UniProt Q05655)
T4 construct: gene PRKCD
Method in brief: as §1

PRAK(h) = biological target: T5, PRAK(h) (Homo sapiens, UniProt Q8IW41)
T5 construct: gene MAPKAPK5
Method in brief: as §1

PRK2(h) = biological target: T6, PRK2(h) (Homo sapiens, UniProt Q16513)
T6 construct: gene PKN2
Method in brief: as §1

Ret(h) = Ret(h) (Homo sapiens, UniProt P07949)
Method in brief: as §1

SGK3(h) = SGK3(h) (Homo sapiens, UniProt Q96BR1)
Method in brief: as §1

SIK(h) = biological target: T7, SIK(h) (Homo sapiens, UniProt P57059)
T7 construct: gene SIK1
Method in brief: as §1

STK16(h) = STK16(h) (Homo sapiens, UniProt O75716)
Method in brief: as §1

STK32A(h) = STK32A(h) (Homo sapiens, UniProt Q8WU08)
Method in brief: as §1

TTBK1(h) = TTBK1(h) (Homo sapiens, UniProt Q5TCY1)
Method in brief: as §1

Tec(h) activated = Tec(h) activated (Homo sapiens, UniProt P42680)
Method in brief: as §1

Chain of MAK(h) (P20794 whole entry): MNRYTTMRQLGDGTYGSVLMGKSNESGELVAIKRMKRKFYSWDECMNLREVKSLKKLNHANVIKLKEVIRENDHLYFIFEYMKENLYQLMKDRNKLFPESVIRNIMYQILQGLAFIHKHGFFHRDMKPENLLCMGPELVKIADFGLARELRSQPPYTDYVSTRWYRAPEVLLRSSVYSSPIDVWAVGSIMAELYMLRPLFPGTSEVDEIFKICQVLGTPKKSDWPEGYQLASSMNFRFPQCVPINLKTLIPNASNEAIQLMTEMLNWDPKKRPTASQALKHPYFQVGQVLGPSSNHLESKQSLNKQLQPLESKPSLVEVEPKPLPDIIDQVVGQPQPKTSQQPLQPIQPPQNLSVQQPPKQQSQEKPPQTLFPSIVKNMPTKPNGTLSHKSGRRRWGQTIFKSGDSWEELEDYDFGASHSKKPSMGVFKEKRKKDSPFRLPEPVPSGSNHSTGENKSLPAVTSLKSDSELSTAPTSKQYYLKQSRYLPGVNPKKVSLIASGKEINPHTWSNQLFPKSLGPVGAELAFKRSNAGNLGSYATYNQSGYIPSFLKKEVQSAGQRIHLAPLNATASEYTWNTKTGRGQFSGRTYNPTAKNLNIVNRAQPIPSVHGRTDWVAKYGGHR
T3 sequence (P52564 whole entry): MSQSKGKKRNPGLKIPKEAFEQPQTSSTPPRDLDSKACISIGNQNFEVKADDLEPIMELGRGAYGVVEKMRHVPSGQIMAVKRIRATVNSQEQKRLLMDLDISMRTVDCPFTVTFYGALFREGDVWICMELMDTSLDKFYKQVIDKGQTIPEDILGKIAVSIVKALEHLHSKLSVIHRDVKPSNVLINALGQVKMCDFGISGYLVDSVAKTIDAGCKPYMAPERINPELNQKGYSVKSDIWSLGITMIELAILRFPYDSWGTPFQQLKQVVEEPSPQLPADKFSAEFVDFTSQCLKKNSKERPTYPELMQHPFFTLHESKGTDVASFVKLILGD
Chain of STK32A(h) (Q8WU08 whole entry): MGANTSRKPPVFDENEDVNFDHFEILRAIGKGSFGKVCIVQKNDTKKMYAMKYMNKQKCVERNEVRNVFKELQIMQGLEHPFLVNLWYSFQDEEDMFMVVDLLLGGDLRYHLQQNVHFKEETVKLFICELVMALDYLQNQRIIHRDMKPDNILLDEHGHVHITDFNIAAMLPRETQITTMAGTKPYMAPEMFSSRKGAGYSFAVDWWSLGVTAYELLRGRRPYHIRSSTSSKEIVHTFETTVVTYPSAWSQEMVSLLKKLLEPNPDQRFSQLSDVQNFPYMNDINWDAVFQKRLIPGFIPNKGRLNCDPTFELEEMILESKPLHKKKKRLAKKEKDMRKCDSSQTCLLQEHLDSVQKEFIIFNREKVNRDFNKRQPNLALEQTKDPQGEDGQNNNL
Chain of AAK1(h) (Q2M2I8 whole entry): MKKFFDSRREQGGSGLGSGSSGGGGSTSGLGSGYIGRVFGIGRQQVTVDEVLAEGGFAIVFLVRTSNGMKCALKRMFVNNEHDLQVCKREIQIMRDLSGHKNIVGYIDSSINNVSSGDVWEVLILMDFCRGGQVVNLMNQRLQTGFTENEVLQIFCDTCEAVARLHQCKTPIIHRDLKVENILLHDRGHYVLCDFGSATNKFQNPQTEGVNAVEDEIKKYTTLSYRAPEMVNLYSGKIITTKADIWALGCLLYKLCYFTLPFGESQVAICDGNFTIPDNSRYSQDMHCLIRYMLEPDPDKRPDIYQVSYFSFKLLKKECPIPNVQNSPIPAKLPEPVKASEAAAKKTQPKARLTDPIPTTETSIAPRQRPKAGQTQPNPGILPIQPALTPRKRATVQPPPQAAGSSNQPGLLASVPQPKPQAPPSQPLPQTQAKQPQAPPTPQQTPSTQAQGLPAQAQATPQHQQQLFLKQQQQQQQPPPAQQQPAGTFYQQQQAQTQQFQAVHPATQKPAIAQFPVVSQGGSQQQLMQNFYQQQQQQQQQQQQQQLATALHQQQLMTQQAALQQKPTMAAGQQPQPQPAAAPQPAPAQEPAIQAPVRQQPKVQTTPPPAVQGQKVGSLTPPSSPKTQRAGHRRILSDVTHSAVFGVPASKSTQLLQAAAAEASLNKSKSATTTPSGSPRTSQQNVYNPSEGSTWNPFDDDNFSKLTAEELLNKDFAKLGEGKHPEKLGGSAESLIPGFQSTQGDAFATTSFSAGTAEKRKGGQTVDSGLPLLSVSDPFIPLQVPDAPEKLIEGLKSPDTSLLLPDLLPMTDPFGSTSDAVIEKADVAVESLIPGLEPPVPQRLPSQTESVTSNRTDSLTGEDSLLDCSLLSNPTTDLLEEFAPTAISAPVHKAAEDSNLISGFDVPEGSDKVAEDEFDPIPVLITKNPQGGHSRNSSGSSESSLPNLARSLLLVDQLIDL
Chain of STK16(h) (O75716 whole entry): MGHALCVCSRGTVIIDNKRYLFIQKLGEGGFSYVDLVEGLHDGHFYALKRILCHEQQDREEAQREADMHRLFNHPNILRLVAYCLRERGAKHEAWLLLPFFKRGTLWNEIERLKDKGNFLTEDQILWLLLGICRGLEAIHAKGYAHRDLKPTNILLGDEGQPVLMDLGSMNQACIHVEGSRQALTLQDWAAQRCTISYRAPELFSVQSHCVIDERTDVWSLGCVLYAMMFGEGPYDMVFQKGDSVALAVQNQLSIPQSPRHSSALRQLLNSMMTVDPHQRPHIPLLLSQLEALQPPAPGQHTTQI
Chain of SGK3(h) (Q96BR1 whole entry): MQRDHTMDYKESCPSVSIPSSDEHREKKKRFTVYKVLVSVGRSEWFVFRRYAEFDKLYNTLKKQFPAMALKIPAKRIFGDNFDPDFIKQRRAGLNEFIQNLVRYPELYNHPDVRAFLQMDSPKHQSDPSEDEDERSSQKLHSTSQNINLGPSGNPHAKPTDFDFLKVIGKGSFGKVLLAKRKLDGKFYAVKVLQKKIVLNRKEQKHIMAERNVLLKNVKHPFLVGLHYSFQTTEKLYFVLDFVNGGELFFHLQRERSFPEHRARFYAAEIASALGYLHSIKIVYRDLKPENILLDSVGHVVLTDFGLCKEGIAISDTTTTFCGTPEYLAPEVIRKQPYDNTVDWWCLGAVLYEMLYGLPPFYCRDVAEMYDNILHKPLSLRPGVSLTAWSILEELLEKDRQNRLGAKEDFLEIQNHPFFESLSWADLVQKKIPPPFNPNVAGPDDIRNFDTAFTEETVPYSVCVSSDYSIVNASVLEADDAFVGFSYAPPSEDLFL
Chain of EGFR(L858R)(h) (P00533 whole entry L858R): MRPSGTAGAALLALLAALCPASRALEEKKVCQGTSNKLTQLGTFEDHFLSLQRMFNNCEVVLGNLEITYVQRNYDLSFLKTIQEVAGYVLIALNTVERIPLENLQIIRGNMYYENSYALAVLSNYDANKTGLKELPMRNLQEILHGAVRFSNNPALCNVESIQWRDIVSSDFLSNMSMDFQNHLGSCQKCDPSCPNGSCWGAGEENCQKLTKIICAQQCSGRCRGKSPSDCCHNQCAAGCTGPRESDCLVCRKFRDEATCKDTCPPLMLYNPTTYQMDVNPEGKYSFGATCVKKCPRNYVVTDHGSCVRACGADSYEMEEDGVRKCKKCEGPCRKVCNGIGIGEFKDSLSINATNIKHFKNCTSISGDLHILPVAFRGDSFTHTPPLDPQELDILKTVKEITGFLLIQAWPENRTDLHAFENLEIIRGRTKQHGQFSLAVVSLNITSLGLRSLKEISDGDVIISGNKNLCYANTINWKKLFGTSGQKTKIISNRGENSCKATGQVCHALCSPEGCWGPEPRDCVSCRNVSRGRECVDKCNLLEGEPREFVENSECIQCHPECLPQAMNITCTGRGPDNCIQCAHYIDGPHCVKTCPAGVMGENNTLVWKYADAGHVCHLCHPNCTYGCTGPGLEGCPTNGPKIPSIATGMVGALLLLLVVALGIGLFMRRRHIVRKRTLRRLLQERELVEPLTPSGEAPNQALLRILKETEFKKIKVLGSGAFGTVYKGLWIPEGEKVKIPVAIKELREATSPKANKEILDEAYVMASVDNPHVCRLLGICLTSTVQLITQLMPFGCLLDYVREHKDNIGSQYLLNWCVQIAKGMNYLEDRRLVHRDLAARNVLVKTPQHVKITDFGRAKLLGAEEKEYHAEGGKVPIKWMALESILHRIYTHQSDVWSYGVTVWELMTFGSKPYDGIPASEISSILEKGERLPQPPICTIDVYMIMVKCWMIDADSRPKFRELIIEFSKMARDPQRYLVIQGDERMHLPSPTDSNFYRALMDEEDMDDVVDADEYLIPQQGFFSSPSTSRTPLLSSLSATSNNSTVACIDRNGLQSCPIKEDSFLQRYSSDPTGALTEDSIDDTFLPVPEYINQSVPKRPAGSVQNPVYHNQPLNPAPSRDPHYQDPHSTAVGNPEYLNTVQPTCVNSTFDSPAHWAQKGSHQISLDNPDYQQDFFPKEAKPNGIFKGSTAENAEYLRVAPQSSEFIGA
T2 sequence (P49137 whole entry): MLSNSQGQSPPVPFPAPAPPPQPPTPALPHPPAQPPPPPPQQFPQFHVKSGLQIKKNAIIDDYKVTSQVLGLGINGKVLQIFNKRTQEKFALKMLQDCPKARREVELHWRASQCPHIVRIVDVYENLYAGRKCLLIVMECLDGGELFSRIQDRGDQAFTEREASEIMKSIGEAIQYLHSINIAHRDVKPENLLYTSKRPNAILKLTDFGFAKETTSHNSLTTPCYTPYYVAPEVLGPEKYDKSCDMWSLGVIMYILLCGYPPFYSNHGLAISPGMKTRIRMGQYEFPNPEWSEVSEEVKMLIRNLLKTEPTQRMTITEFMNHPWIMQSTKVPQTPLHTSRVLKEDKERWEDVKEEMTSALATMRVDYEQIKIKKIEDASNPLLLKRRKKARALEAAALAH

## C1=C(c2nc(-c3cnn(C4CCNCC4)c3)cn3cc(-c4ccccc4)nc23)CCOC1 [YL-939]
AAK1(h)
  remaining activity at 10 µM: 68%
BMPR2(h)
  remaining activity at 10 µM: 99%
CDK18/cyclinY(h)
  remaining activity at 10 µM: 97%
EGFR(L858R)(h)
  remaining activity at 10 µM: 86%
FGFR1(h)
  remaining activity at 10 µM: 115%
Fer(h)
  remaining activity at 10 µM: 86%
Fes(h)
  remaining activity at 10 µM: 86%
Fgr(h)
  remaining activity at 10 µM: 76%
MAK(h)
  remaining activity at 10 µM: 74%
MAPK2(h)
  remaining activity at 10 µM: 88%
MAPKAP-K2(h)
  remaining activity at 10 µM: 92%
MKK6(h)
  remaining activity at 10 µM: 106%
NLK(h)
  remaining activity at 10 µM: 86%
PKCδ(h)
  remaining activity at 10 µM: 81%
PRAK(h)
  remaining activity at 10 µM: 144%
PRK2(h)
  remaining activity at 10 µM: 89%
Ret(h)
  remaining activity at 10 µM: 123%
SGK3(h)
  remaining activity at 10 µM: 83%
SIK(h)
  remaining activity at 10 µM: 100%
STK16(h)
  remaining activity at 10 µM: 100%
STK32A(h)
  remaining activity at 10 µM: 111%
TTBK1(h)
  remaining activity at 10 µM: 103%
Tec(h) activated
  remaining activity at 10 µM: 70%
